Test system: P12-Ichikawa
Assay: cell viability relative to DMSO control; higher = less cytotoxic
Conditions: 48 h
Summary of the method: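 NOMO1 or SEM (500 cells/well) or P12-Ichikawa (1000 cells/well) leukemia cells were adapted for at least four passages in each medium. They were seeded in 1536-well plates (5 μl) and pin-dosed with library compounds in DMSO over an 11-point threefold series, 47 μM to 0.79 nM. CellTiter-Glo One luminescence was read after 48 h at 37°C. Viability is the per-plate percentage relative to DMSO wells, with cell-free wells as background.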

[1] = HPLM + 10% dialyzed FBS, 0.000781 µM
[2] = HPLM + 10% dialyzed FBS, 0.00234 µM
[3] = HPLM + 10% dialyzed FBS, 0.00702 µM
[4] = HPLM + 10% dialyzed FBS, 0.0211 µM
[5] = HPLM + 10% dialyzed FBS, 0.0632 µM
[6] = HPLM + 10% dialyzed FBS, 0.19 µM
[7] = HPLM + 10% dialyzed FBS, 0.569 µM
[8] = HPLM + 10% dialyzed FBS, 1.71 µM
[9] = HPLM + 10% dialyzed FBS, 5.12 µM
[10] = HPLM + 10% dialyzed FBS, 15.4 µM
[11] = HPLM + 10% dialyzed FBS, 46.1 µM
[12] = RPMI 5 mM glucose + 10% FBS, 0.000781 µM
[13] = RPMI 5 mM glucose + 10% FBS, 0.00234 µM
[14] = RPMI 5 mM glucose + 10% FBS, 0.00702 µM
[15] = RPMI 5 mM glucose + 10% FBS, 0.0211 µM
[16] = RPMI 5 mM glucose + 10% FBS, 0.0632 µM
[17] = RPMI 5 mM glucose + 10% FBS, 0.19 µM
[18] = RPMI 5 mM glucose + 10% FBS, 0.569 µM
[19] = RPMI 5 mM glucose + 10% FBS, 1.71 µM
[20] = RPMI 5 mM glucose + 10% FBS, 5.12 µM
[21] = RPMI 5 mM glucose + 10% FBS, 15.4 µM
[22] = RPMI 5 mM glucose + 10% FBS, 46.1 µM
[23] = RPMI 5 mM glucose + 10% dialyzed FBS, 0.000781 µM
[24] = RPMI 5 mM glucose + 10% dialyzed FBS, 0.00234 µM
[25] = RPMI 5 mM glucose + 10% dialyzed FBS, 0.00702 µM
[26] = RPMI 5 mM glucose + 10% dialyzed FBS, 0.0211 µM
[27] = RPMI 5 mM glucose + 10% dialyzed FBS, 0.0632 µM
[28] = RPMI 5 mM glucose + 10% dialyzed FBS, 0.19 µM
[29] = RPMI 5 mM glucose + 10% dialyzed FBS, 0.569 µM
[30] = RPMI 5 mM glucose + 10% dialyzed FBS, 1.71 µM
[31] = RPMI 5 mM glucose + 10% dialyzed FBS, 5.12 µM
[32] = RPMI 5 mM glucose + 10% dialyzed FBS, 15.4 µM
[33] = RPMI 5 mM glucose + 10% dialyzed FBS, 46.1 µM

Structure (SMILES)	cell viability [1] [%]	cell viability [2] [%]	cell viability [3] [%]	cell viability [4] [%]	cell viability [5] [%]	cell viability [6] [%]	cell viability [7] [%]	cell viability [8] [%]	cell viability [9] [%]	cell viability [10] [%]	cell viability [11] [%]	cell viability [12] [%]	cell viability [13] [%]	cell viability [14] [%]	cell viability [15] [%]	cell viability [16] [%]	cell viability [17] [%]	cell viability [18] [%]	cell viability [19] [%]	cell viability [20] [%]	cell viability [21] [%]	cell viability [22] [%]	cell viability [23] [%]	cell viability [24] [%]	cell viability [25] [%]	cell viability [26] [%]	cell viability [27] [%]	cell viability [28] [%]	cell viability [29] [%]	cell viability [30] [%]	cell viability [31] [%]	cell viability [32] [%]	cell viability [33] [%]
CNC(=O)c1cc(Oc2ccc(NC(=O)Nc3ccc(Cl)c(C(F)(F)F)c3)c(F)c2)ccn1	86.4	89.8	93.8	91.3	92	95.4	87.8	91	88.3	81.4	67.7	85.4	92.6	87.8	97.8	86.2	95.6	94.2	83.6	87.1	86.8	65.5	91.7	89.9	90.5	98.6	94.1	91.5	84.9	90.3	84.7	89.1	73.5
NC(=O)Cc1cccc(C(=O)c2ccccc2)c1N	101	103	103	92.6	110	111	103	106	97.7	98.6	95.6	100	96.6	102	86.9	106	94.3	97	96.2	99	85.3	82.9	102	101	101	85.2	96.1	98.3	101	99.3	101	87.7	85.2
CN1CCN(CC1)C/2=N/C3=CC=CC=C3NC4=C2C=C(C)S4	98	93.9	105	98.5	98.8	104	107	96.9	87.4	97.4	91.1	92.8	104	104	102	102	105	102	101	72.2	102	84.8	94.1	99.9	97.9	96.8	98.3	99.9	99.1	91.4	92.1	93	91.9
Clc1ccc(C(Cn2ccnc2)OCc2ccc(Sc3ccccc3)cc2)c(Cl)c1 (configuration not stated)	103	110	107	111	117	110	118	115	111	106	9.24	115	120	109	115	116	108	110	117	109	105	14.3	111	102	111	107	107	104	105	101	102	101	19.5
C[C@]12CCC(=O)C(O)=C1CC[C@@H]1[C@@H]2CC[C@]2(C)C(=O)CC[C@@H]12	122	125	122	119	119	122	128	117	120	111	104												112	124	132	121	121	115	130	126	101	108	104
O=C(O)CCCc1ccc(N(CCCl)CCCl)cc1	117	116	118	122	125	122	125	126	123	123	20.4																						
O=C1N\N=C(\C[C@@H]2CCN(C2)C(=O)C3CC3)N1C4=CC=C(C=C4)C5=CC=C6OC=CC6=C5	79.6	82	83.2	86.1	91.9	81.5	81	88.7	83.7	83.2	80.3	76.3	77	77.1	78.3	87.6	75.5	73.6	78.8	82.1	78.2	83.9	83.3	79.8	81.6	84	93.6	84.5	91.1	80.6	82.9	86.3	85.7
NC(=O)c1ncn([C@@H]2O[C@H](CO)[C@@H](O)[C@H]2O)c1N	120	124	120	119	122	121	122	117	115	115	104																						
CN(C)c1ccccc1CN1CCCN(Cc2ccccc2N(C)C)C1c1ccncc1	84.7	94.7	101	11.9	102	100	108	111	108	78.3	94.1	84	90.7	94	11	93.7	99	108	105	103	102	80.2	82.3	88.5	82.8	19.7	92.9	91.7	91.1	93.4	101	100	71.9

Reference: the supplement of paper PMC11451515
